In general, inhibition refers to the relative decrease from the control value, in per cent. Lower therefore signals a weak effect. By IC50 is commonly meant the point on the concentration scale where inhibition reaches its midpoint. Read a low IC50 as greater potency in that assay.

For one test, the target named is T1, SRC (Homo sapiens, UniProt P12931).
T1 construct: purchased Eurofins DiscoverX Corporation
The test is described as follows: KINOMEscan competition binding screen, SRC. The settings on record: for remaining binding at 10 µM: read-out: % Ctrl @ 10 μM. The protocol: (§1) The KINOMEscan™ screening platform (Eurofins DiscoverX Corporation, San Diego, USA) was performed using an active site-directed competition binding assay to quantitatively measure interactions between BK40143, BK40197, BK40195, and BK40196 and more than 450 human kinases and disease relevant mutant variants. […] Screening “hits” were identified by measuring the amount of kinase captured in test (BK40143, BK40197, BK40195, and BK40196) versus control samples by using a quantitative and ultra-sensitive qPCR method that detects the associated DNA label. BK40143, BK40197, BK40195, and BK40196 were screened at 10 μM concentration, and results for primary screen binding interactions were reported as ‘% Ctrl’ (POC), where lower numbers indicate stronger hits and calculated as follows:
(§2) [formula] • test compound=BK40143 or BK40197 or BK40195 or BK40196 • negative control=DMSO (100% Ctrl) • positive control=control compound (0% Ctrl)
(§3) Based on screening data of profiled compounds, a proportional relationship between primary screening results and corresponding compound/target affinities can be described as binding constants (Kd values) for the indicated ranges of percent of control (PoC) values, with tighter binding (higher affinity) interactions associated with lower PoC values, and weaker binding (lower affinity) associated with higher PoC values. Briefly, kinase-tagged T7 phage strains were grown in parallel in 24-well blocks in an E. coli host derived from the BL21 strain. E. coli were grown to log-phase and infected with T7 phage from a frozen stock (multiplicity of infection=0.4) and incubated with shaking at 32° C. until lysis (90-150 minutes). The lysates were centrifuged (6,000×g) and filtered ([…]) to remove cell debris. The remaining kinases were produced in HEK-293 cells and subsequently tagged with DNA for qPCR detection. Streptavidin-coated magnetic beads were treated with biotinylated small molecule ligands for 30 minutes at room temperature to generate affinity resins for kinase assays. The liganded beads were blocked with excess biotin and washed with blocking buffer (SeaBlock (Pierce), 1% BSA, 0.05% Tween 20, 1 mM DTT) to remove unbound ligand and to reduce non-specific phage binding. Binding reactions were assembled by combining kinases, liganded affinity beads, and test compounds in 1× binding buffer (20% SeaBlock, 0.17×PBS, 0.05% Tween 20, 6 mM DTT). Test compounds were prepared as 100× stocks in 100% DMSO and directly diluted into the assay. All reactions were performed in polypropylene 384-well plates in a final volume of 0.02 ml. The assay plates were incubated at room temperature with shaking for 1 hour and the affinity beads were washed with wash buffer (1×PBS, 0.05% Tween 20). The beads were then re-suspended in elution buffer (1×PBS, 0.05% Tween 20, 0.5 μM non-biotinylated affinity ligand) and incubated at room temperature with shaking for 30 minutes. The kinase concentration in the eluates was measured by qPCR.

Another test deals with T2, SYK (Homo sapiens, UniProt P43405).
T2 construct: purchased Eurofins DiscoverX Corporation
In words: KINOMEscan competition binding screen, SYK. The settings on record: for remaining binding at 10 µM: read-out: % Ctrl @ 10 μM. The protocol:
as §1, §2, §3

Another test addresses T3, KIT autoinhibited (Homo sapiens, UniProt P10721).
T3 construct: purchased Eurofins DiscoverX Corporation
In words: KINOMEscan competition binding screen, KIT autoinhibited. The settings on record: for remaining binding at 10 µM: read-out: % Ctrl @ 10 μM. The protocol: as §1, §2, §3

A further test deals with T4, FYN (Homo sapiens, UniProt P06241).
T4 construct: purchased Eurofins DiscoverX Corporation
T4 sequence (P06241 whole entry): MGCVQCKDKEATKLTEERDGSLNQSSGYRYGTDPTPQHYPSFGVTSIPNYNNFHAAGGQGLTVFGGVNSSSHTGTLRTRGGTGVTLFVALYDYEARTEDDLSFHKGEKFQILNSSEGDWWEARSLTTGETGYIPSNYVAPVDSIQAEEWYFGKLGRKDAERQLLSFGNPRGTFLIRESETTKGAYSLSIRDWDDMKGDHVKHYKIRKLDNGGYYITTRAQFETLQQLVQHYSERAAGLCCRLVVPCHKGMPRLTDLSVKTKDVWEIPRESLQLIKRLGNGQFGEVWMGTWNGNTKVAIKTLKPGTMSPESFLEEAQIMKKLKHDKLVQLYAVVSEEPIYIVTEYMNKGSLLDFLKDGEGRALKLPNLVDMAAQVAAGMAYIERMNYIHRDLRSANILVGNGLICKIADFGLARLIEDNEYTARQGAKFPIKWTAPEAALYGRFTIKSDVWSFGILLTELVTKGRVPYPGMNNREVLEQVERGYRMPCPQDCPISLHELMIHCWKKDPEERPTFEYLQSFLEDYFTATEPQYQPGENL
The test is described as follows: KINOMEscan competition binding screen, FYN. Conditions: for remaining binding at 10 µM: read-out: % Ctrl @ 10 μM. As to the method: as §1, §2, §3

The target of a further test is T5, c-kit (Homo sapiens, UniProt P10721).
T5 construct: purchased Luceome Biotechnologies, LLC
T5 sequence (P10721 26-976): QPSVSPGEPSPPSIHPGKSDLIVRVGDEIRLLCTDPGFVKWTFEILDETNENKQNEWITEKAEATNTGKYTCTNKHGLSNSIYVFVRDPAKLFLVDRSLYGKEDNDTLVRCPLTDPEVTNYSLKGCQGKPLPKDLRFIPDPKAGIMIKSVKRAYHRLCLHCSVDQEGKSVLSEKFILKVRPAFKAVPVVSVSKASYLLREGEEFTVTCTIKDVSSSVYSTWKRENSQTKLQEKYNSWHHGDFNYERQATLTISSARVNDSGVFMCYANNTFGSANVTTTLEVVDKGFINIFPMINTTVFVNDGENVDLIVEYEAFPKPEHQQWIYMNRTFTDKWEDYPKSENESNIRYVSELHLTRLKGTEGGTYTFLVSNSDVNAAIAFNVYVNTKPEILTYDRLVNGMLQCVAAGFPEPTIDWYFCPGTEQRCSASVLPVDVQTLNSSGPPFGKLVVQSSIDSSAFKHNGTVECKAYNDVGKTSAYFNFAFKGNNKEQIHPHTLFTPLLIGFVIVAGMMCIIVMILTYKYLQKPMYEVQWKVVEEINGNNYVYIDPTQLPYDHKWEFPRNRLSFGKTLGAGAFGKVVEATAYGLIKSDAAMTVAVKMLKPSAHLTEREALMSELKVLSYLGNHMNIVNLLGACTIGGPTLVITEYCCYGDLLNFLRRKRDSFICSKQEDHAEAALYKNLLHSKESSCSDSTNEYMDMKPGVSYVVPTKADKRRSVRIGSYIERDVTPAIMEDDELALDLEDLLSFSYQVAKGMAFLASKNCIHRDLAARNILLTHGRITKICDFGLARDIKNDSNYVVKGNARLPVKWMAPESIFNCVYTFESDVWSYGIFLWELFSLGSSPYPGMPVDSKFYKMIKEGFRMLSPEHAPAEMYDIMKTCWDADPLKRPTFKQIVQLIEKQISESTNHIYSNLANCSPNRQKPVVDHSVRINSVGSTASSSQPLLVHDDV
The test is described as follows: KINASESEEKER competition binding assay, c-kit. Conditions: minimum 8-point curve, duplicate. The protocol:
(§4) Kinase assays were performed using KINASESEEKER™ (Luceome Biotechnologies, LLC; Tucson, AZ). KINASESEEKER™ is a homogeneous competition binding assay in which the displacement of an active site-dependent probe by an inhibitor is measured by a change in luminescence signal. Luminescence readout translates into a highly sensitive and robust assay with low background and minimal interference from test compounds. See J. Am. Chem. Soc., 2010, 132, 11727-11735.
(§5) Stock solutions of compounds were serially diluted in DMSO to make assay stocks. Prior to initiating IC50 determination, the test compounds were evaluated for false positives against split-luciferase. The compounds were screened against kinases at a minimum of 8 different concentrations in duplicate. For kinase assays, a 24 μL aliquot of lysate containing Cfluc-kinase and Fos-Nfluc was incubated for 2 hours with either 1 μL of DMSO (for no-inhibitor control) or compound solution in DMSO in presence of a kinase specific probe. 80 μL of luciferin assay reagent was added to each solution and luminescence was immediately measured on a luminometer.
(§6) The % Inhibition and % Activity Remaining was calculated using the following equation: […]
(§7) The % Activity Remaining was plotted against compound concentration and the IC50 was determined for each compound using a minimum 8-point curve.

Another test addresses T6, DDR1 (Homo sapiens, UniProt Q08345).
T6 construct: purchased Luceome Biotechnologies, LLC
The test is described as follows: KINASESEEKER competition binding assay, DDR1. The settings on record: minimum 8-point curve, duplicate. As to the method:
as §4, §5, §6, §7

A further test addresses T7, DDR2 (Homo sapiens, UniProt Q16832).
T7 construct: purchased Luceome Biotechnologies, LLC
T7 sequence (Q16832 22-855): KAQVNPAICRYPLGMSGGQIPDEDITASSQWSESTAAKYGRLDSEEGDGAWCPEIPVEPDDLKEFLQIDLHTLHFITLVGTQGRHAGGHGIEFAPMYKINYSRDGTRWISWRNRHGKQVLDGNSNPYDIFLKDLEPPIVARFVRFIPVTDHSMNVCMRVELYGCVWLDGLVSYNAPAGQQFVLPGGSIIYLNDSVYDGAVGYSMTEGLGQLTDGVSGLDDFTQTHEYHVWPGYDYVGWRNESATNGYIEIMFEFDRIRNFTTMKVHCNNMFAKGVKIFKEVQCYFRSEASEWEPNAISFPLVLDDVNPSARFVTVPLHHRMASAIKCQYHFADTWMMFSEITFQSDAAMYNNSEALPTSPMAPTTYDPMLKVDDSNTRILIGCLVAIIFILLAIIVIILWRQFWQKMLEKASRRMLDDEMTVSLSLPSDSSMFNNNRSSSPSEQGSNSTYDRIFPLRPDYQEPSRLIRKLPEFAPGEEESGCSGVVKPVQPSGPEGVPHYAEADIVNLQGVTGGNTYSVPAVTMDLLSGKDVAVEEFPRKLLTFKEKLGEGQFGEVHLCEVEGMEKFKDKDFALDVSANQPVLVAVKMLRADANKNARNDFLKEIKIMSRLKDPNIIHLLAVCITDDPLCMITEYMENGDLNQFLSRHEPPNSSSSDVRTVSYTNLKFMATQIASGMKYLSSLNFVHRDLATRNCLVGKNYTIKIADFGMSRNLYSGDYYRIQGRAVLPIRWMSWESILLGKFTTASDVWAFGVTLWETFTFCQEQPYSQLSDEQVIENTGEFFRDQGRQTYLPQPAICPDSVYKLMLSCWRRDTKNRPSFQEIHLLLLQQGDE
The test is described as follows: KINASESEEKER competition binding assay, DDR2. Conditions: minimum 8-point curve, duplicate. The protocol: as §4, §5, §6, §7

SMILES strings stand for the structures.

T6 sequence (Q08345 19-913): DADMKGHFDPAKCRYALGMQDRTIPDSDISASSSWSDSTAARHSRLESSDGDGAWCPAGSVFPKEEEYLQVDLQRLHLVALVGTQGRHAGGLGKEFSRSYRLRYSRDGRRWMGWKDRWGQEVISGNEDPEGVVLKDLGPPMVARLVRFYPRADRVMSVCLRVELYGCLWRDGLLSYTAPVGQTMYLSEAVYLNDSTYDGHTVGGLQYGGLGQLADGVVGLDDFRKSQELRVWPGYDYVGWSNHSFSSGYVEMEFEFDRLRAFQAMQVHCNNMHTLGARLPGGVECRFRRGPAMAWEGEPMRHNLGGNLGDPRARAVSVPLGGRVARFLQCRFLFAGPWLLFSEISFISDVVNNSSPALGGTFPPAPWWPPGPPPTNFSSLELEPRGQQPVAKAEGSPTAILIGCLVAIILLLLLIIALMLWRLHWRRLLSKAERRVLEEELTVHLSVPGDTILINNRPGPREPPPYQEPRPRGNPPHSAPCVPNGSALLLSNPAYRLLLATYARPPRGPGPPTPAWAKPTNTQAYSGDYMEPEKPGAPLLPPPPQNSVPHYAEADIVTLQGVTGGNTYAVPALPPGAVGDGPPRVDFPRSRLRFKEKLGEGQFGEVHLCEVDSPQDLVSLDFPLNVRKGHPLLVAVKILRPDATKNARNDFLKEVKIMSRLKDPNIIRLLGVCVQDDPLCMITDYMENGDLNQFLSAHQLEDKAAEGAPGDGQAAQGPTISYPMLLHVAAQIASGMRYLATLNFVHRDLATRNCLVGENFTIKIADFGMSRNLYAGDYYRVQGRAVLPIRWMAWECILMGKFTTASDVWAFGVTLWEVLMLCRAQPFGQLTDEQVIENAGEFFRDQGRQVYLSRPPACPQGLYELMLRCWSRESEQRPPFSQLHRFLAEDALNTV
T1 sequence (P12931 whole entry): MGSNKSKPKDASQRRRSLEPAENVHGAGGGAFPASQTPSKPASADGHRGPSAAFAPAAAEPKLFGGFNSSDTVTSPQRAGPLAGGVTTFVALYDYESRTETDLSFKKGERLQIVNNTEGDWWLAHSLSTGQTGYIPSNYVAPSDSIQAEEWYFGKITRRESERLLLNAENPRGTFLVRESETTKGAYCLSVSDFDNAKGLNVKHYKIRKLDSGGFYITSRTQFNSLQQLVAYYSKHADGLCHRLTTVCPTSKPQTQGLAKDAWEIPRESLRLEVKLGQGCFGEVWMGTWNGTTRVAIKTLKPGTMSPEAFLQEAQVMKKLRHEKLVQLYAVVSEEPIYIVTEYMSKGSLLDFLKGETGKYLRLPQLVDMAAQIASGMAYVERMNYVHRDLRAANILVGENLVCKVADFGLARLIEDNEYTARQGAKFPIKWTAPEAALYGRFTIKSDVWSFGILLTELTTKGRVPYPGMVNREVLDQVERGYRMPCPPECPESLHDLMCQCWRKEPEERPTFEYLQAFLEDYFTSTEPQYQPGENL
T3 sequence (P10721 544-976 limits assumed): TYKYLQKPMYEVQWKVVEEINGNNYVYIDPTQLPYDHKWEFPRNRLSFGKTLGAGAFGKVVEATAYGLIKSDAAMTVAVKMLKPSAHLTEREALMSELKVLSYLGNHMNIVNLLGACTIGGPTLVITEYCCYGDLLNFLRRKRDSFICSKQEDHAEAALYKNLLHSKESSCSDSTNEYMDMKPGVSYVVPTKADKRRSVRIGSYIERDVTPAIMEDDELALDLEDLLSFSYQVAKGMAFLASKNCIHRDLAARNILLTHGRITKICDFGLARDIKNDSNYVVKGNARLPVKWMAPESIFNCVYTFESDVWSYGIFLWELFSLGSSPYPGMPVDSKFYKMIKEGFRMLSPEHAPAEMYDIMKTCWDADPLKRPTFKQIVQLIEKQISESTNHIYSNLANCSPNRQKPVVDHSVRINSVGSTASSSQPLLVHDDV

In the case of `Cc1cccc(-c2cc3nccc(N4CCOCC4)c3s2)c1` [BK40197], the inhibition at 10 µM worked out at 19% on SRC, 56% at SYK, 48% on KIT autoinhibited and 44% on FYN. The remaining binding at 10 µM was 81% on SRC, 44% at SYK, 52% on KIT autoinhibited and 56% at FYN.
Regarding `COc1cccc(Nc2ccnc3cc(-c4cccc(C)c4)sc23)c1` [BK40195], the inhibition at 10 µM at SRC was found to be 99.7%; on SYK, 88%; on KIT autoinhibited, 78%; on FYN, 97.6%. For the same compound, the remaining binding at 10 µM at SRC worked out at 0.35%; at SYK it was 12%; at KIT autoinhibited, 22%; at FYN, 2.4%. Further, the IC50 at c-kit was 288 ± 23 nM; on DDR1, 2200 ± 260 nM; at DDR2 it was 1900 ± 260 nM.
As to `Cc1cccc(-c2cc3nccc(Nc4ccccc4)c3s2)c1` [BK40143], the inhibition at 10 µM stood at 94.7% on SRC, 94.5% at SYK, 31% on KIT autoinhibited and 90% on FYN. For the same compound, the remaining binding at 10 µM at SRC was 5.3%; at SYK, 5.5%; at KIT autoinhibited, 69%; on FYN, 10%. Further, the IC50 at c-kit is 750 ± 110 nM; at DDR1 it was 7050 ± 1050 nM; on DDR2, 6030 ± 930 nM.
Take `Cc1cccc(-c2cc3nccc(Nc4cccc(O)c4)c3s2)c1` [BK40196]: the inhibition at 10 µM on SRC is 99.9%; at SYK, 97.7%; on KIT autoinhibited, 44%; on FYN, 100%. Besides, the remaining binding at 10 µM at SRC turned out to be 0.1%; at SYK, 2.3%; on KIT autoinhibited, 56%; on FYN it was 0%. In addition, the IC50 at c-kit was 276 ± 35 nM; on DDR1 it was 1070 ± 130 nM; on DDR2 it was 922 ± 130 nM.
